# Test results reported in patent US12152038B2, “Vasopressin receptor antagonists and products and methods related thereto” (Neumora Therapeutics, Inc., priority 2017, dated 2024).
# Where two headings read alike, the source gives them in different places.
# Tests used:
# [1] = biological target: T1, human Arginine Vasopressin Receptor 1a (AVPR1a) (Homo sapiens, UniProt P37288); test: Vasopressin V1a receptor antagonist assay (FLIPR calcium, CHO-AVPR1a cells); format: cell-based
# T1 construct: expressed in transfected cells; host or cells: CHO (CHO-AVPR1a, kept under G418 selection)
# Summary of the method: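 CHO cells expressing human AVPR1a were loaded with Calcium-6 dye and preincubated with compound for 15 min at 37° C. Cells were then challenged with AVP at its daily-determined EC80, and FLIPR fluorescence was read. Compounds were tested in duplicate as 10-point 1:3 dilutions from a top final concentration of 3 μM.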
# [2] = biological target: T2, human Oxytocin Receptor (hOTR) (Homo sapiens, UniProt P30559); test: Oxytocin receptor (OTR) antagonist assay (FLIPR calcium, CHEM-1-hOTR cells); format: cell-based
# T2 construct: host or cells: CHEM-1 (ready-to-assay frozen cells)
# T2 sequence (P30559 1-389): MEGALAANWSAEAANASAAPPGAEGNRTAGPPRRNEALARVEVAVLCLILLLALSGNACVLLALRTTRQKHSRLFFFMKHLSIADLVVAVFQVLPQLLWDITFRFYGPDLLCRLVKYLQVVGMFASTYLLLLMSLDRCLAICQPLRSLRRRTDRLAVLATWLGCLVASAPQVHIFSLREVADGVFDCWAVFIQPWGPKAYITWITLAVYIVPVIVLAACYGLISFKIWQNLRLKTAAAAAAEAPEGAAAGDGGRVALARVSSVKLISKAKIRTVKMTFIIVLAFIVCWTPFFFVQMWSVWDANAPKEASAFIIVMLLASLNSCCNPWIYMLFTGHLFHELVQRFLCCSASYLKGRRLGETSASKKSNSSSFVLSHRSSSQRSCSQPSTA
# Description: This assay was performed in CHEM-1 cells expressing the human Oxytocin Receptor (hOTR) to determine the inhibitory effect of the compounds of the invention on the human Oxytocin receptor. Oxytocin evokes an increase in intracellular calcium in CHEM-1-hOTR cells which is measured in a fluorescence assay on the FLIPR^TETRA using calcium sensitive dyes. Test compounds were assessed for their ability to affect the magnitude of the response to oxytocin, with antagonists showing a concentration-dependent reduction in the oxytocin-mediated fluorescence.
# CHEM-1-hOTR ready was used to assay frozen cells (Eurofins #HTS09ORTA) which are supplied with a proprietary Media Component.
# Day 1 of the assay: Cells were thawed in a 37° C. water bath and diluted with the supplied Media Component to a final volume of 10 ml. The cell suspension was centrifuged at 1000 rpm for 3 min at room temperature and the supernatant was discarded. The cell pellet was resuspended in Media Component (10.5 ml) and the cells (25 μL) were dispensed into a poly-D-lysine coated black, clear bottomed, 384-well plate. The plates were incubated overnight at 37° C., 5% CO2.
# Day 2: At the start of each assay day the potency of oxytocin was assessed and an EC80 concentration was determined for subsequent compound profiling. Assays were performed using a two-step addition protocol on the FLIPR^TETRA; first addition of 5 μl of control or test compound at 10× final in assay buffer with 15 min incubation at 37° C., 5% CO2 followed by 10 μl of oxytocin at 6× final concentration in assay buffer. Changes in fluorescence were monitored for 3 min after both additions on the FLIPR^TETRA using 470-495 nm excitation and 515-575 nm emission wavelengths. The assay buffer consisted of HBSS (+Ca/+Mg) supplemented with 20 mM HEPES, and for the preparation of the oxytocin agonist only, 0.1% w/v bovine serum albumin. The assay was initiated by the removal of growth media from the cells and replaced with 45 μl of Calcium-6 dye (Molecular Devices) prepared at 1× in assay buffer. Cells were loaded with dye for 60-90 min at 37° C., 5% CO2 before initiation of the FLIPR^TETRA protocol. […] For compound profiling, test compounds were first serially diluted in DMSO (10-point curve, 1:3 dilutions) then diluted 33.3-fold in assay buffer prior to addition to the dye loaded cells on the FLIPR^TETRA. At the end of the incubation period 10 μl of oxytocin in assay buffer containing 0.1% BSA was added at the previously determined EC80 concentration.
# In-plate controls for the assay included a L-368,899 concentration-response curve as the reference OTR antagonist and an oxytocin concentration-response curve to confirm the reproducibility of the EC80 used for the compound challenge.
# [3] = Wild-type MDCK permeability and efflux assay (Papp, efflux ratio); format: in vitro ADME; settings: dog, pH 7.4, wild-type MDCK cells; for efflux ratio at 1 h, 10 μM: Papp B>A/Papp A>B, read-out: ER WT (Efflux Ratio)
# Description: (§1) The MDR1-MDCK effective efflux assay was performed as described in the BioFocus Standard Operating Procedure, ADME-SOP-56. Both wild-type (WT) and MDR1-MDCK cells (Solvo Biotechnology) were seeded onto 24-well Transwell plates at 2.35×10^5 cells per well and used in confluent monolayers after a 3 day culture at 37° C. under 5% CO2. For both cell types, test and control compounds (propranolol, vinblastine) were added (10 μM, 0.1% DMSO final, n=2) to donor compartments of the Transwell plate assembly in assay buffer (Hanks balanced salt solution supplemented with 25 mM HEPES, adjusted to pH 7.4) for both apical to basolateral (A>B) and basolateral to apical (B>A) measurements. Incubations were performed at 37° C., with samples removed from both donor and acceptor chambers at T=0 and 1 hour and compound analysed by mass spectrometry (LC-MS/MS) including an analytical internal standard.
# (§2) Apparent permeability (Papp) values were determined from the relationship: Papp=[CompoundAcceptor T=end]×V Acceptor/([Compound Donor T=0]×V Donor)/incubation time×V Donor/Area×60×10^−6 cm/s
# (§3) In this equation, V is the volume of each Transwell compartment (apical 125 μL, basolateral 600 μL), and concentrations are the relative MS responses for compound (normalized to internal standard) in the donor chamber before incubation and acceptor chamber at the end of the incubation, and Area is the area of cells exposed for drug transfer (0.33 cm^2).
# (§4) Efflux ratios (Papp B>A/Papp A>B) were calculated for each compound from the mean Papp values in each direction for both wild-type and MDR1-MDCK cells.
# (§5) In order to confirm the involvement of MDR1 in any efflux seen, an “effective efflux ratio” (EER) was calculated by comparing compound efflux ratios (ER) in the two cell types by the following equation: EER=ER(MDR1-MDCK)/ER(wild-type MDCK)
# (§6) This ratio illustrates the effect of the over-expressed MDR1 normalised for the background movement of compound through the wild-type cells.
# (§7) Lucifer Yellow (LY) was added to the apical buffer in all wells to assess viability of the cell layer. […] Recoveries<50% indicates compound solubility, stability or binding issues, thereby reducing the reliability of a result.
# (§8) The inherent ability of a potential drug molecule to penetrate the blood brain barrier and avoid efflux by transporters expressed in the brain, can be roughly correlated with the Papp(A-B) and the efflux ratio (as defined above), respectively. A potential drug molecule with an apparent permeability<7 (10^−6 cm/sec) has low permeability (+), >7 (10^−6 cm/sec) but <10 (10^−6 cm/sec) has moderate permeability (++), >10 (10^−6 cm/sec) but <20 (10^−6 cm/sec) has good permeability (+++), and >20 (10^−6 cm/sec) is highly permeable (++++). High permeability in the WT and MDCK II cell permeability assay increases the probability of blood brain barrier penetration and access to the CNS. A potential drug molecule in the above assay system with an efflux ratio or effective efflux ratio of <1 has low probability of being an efflux substrate (++++), >1 but <2 has moderate probability of being an efflux substrate (+++), >2 but <3 has has an increased probability of being an efflux substrate (++), and >3 has a high probability of being an efflux substrate (+). If a potential drug molecule is an efflux substrate, the molecule will have a low probability of reaching exposures in the brain (site of action) that will result in efficacious levels of receptor occupancy.
# MDR1 (P-glycoprotein) = biological target: T3, MDR1 (P-glycoprotein) (Homo sapiens, UniProt P08183); test: MDR1-MDCK permeability and efflux assay (Papp, efflux ratio, effective efflux ratio); format: in vitro ADME; settings: dog; for Papp A→B at 1 h, 10 μM: pH 7.4, read-out: Papp AB MDR1
# T3 construct: host or cells: MDCK (MDR1-MDCK; wild-type MDCK as comparator)
# Description: as §1, §2, §3, §4, §5, §6, §7, §8
# [4] = MDCK-MDR1, pH 7.4, ER(MDR1-MDCK)/ER(wild-type MDCK), read-out: EER (Effective Efflux Ratio)
# [5] = MDCK-MDR1, pH 7.4, Papp B>A/Papp A>B, MDR1-MDCK cells, read-out: ER MDR1 (Efflux Ratio)
# T3 sequence (P08183 whole entry): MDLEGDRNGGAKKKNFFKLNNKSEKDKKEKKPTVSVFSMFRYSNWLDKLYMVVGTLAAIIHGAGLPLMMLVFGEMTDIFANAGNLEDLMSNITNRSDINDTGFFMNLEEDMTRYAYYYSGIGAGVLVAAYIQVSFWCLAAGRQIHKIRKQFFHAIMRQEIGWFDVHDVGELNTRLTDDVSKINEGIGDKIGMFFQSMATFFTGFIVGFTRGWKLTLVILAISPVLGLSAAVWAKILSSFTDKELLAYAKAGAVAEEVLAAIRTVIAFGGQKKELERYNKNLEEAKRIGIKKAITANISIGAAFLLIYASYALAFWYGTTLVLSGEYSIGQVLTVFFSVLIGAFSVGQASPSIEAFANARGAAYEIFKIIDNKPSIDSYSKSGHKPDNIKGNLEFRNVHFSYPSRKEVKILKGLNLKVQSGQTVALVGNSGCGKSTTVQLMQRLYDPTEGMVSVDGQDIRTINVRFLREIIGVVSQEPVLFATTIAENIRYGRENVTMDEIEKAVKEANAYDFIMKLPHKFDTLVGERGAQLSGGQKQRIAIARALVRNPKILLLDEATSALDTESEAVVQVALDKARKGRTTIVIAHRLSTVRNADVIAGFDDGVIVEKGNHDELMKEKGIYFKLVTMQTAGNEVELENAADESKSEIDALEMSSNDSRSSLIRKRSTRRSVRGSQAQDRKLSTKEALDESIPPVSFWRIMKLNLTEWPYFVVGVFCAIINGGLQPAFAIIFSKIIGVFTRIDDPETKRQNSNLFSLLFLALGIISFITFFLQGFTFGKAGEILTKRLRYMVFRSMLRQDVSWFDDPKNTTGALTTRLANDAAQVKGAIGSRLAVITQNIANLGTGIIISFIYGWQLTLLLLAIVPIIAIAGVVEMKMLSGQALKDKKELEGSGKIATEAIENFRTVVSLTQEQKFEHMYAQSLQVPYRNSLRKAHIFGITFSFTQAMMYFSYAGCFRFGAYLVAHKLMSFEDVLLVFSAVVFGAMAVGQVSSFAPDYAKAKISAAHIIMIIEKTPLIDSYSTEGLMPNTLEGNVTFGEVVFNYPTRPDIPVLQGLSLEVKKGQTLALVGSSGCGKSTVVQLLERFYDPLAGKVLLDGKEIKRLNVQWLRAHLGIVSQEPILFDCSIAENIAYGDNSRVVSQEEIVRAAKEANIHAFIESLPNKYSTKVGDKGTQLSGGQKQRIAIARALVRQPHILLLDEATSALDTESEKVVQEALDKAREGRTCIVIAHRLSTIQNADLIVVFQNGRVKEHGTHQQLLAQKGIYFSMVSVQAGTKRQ
# T1 sequence (P37288 whole entry): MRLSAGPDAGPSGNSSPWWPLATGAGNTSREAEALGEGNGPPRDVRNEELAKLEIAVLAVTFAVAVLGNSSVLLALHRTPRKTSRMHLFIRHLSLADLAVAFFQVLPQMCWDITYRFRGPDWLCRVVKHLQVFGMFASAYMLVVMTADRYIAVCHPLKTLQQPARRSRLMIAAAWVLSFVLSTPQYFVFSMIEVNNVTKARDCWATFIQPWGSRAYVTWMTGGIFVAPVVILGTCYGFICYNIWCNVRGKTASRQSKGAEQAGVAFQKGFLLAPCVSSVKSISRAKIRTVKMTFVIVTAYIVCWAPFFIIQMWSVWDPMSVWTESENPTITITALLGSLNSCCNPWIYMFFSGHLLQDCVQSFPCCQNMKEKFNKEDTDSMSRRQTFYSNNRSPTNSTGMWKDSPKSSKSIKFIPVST
IC50 [1],IC50 [2],"Papp A→B at 1 h, 10 μM [3]","efflux ratio at 1 h, 10 μM [3]","efflux ratio at 1 h, 10 μM (MDR1 (P-glycoprotein); [4])","efflux ratio at 1 h, 10 μM (MDR1 (P-glycoprotein); [5])","Papp A→B at 1 h, 10 μM (MDR1 (P-glycoprotein); MDR1-MDCK cells)",Structure (SMILES)
≥ 1000 nM,< 100 nM,–,–,–,–,–,"CC1COc2cc(Cl)ccc2N1C(=O)N1CC2(C1)CN(c1ncccc1F)C2 (single isomer, unassigned) [1-57-B]"
≥ 1000 nM,–,> 20 ×10⁻⁶ cm/s,< 1,1 to 2,< 1,> 20 ×10⁻⁶ cm/s,"CC1COc2cc(F)ccc2N1C(=O)N1CC2(C1)CN(c1ccc(F)cn1)C2 (single isomer, unassigned) [12-1-A]"
< 100 nM,–,> 20 ×10⁻⁶ cm/s,1 to 2,> 3,> 3,> 20 ×10⁻⁶ cm/s,"O=C(N1CC2(C1)CN(c1cnccn1)C2)N1CCC(O)c2cc(Cl)ccc21 (single isomer, unassigned) [13-3-B]"
≥ 1000 nM,–,> 20 ×10⁻⁶ cm/s,< 1,1 to 2,< 1,> 20 ×10⁻⁶ cm/s,"CC1COc2cc(Cl)ccc2N1C(=O)N1CC2(C1)CN(c1cc(C#N)ccn1)C2 (single isomer, unassigned) [20-6-A]"
≥ 1000 nM,–,> 20 ×10⁻⁶ cm/s,< 1,< 1,< 1,> 20 ×10⁻⁶ cm/s,"Cc1nc(N2CC3(CN(C(=O)N4c5ccc(Cl)cc5OCC4C)C3)C2)ncc1F (single isomer, unassigned) [20-7-A]"
≥ 1000 nM,≥ 1000 nM,–,–,–,–,–,"Cc1cnc(N2CC3(CN(C(=O)N4c5ccc(Cl)cc5OCC4C)C3)C2)nc1 (single isomer, unassigned) [20-13-A]"
< 100 nM,–,> 20 ×10⁻⁶ cm/s,1 to 2,< 1,1 to 2,> 20 ×10⁻⁶ cm/s,CC1COc2cc(F)ccc2N1C(=O)N1CC2(C1)CN(c1cc(C#N)ccn1)C2 (stereo not shown) [20-3]
